Results as given in ChEMBL document CHEMBL1201862, “PubChem BioAssay data set” (2004).
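Test compounds were applied to cells in 96-well plates for 48 hours at 5 doses. The concentration for 50% growth inhibition is given as GI50.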 Active and inactive are the calls of the source. Cut-off read from the data, not from the text of the source: active = GI50 up to about 1.1 µM and inactive = higher.

Assays:
Assay in all cases: growth of human tumour cells (NCI), 48 h
[1] = test system: A498
[2] = test system: A549
[3] = test system: CCRF-CEM
[4] = test system: HCC 2998
[5] = test system: HT-29
[6] = test system: Hs-578T
[7] = test system: IGROV-1
[8] = test system: MOLT-4
[9] = test system: Malme-3M
[10] = test system: NCI-H226
[11] = test system: NCI-H23
[12] = test system: NCI-H460
[13] = test system: SF-295
[14] = test system: SK-MEL-5
[15] = test system: SR
[16] = test system: SW-620
[17] = test system: TK-10
[18] = test system: U-251
[19] = test system: UO-31

SMILES | GI50 [1] | GI50 [2] | GI50 [3] | GI50 [4] | GI50 [5] | GI50 [6] | GI50 [7] | GI50 [8] | GI50 [9] | GI50 [10] | GI50 [11] | GI50 [12] | GI50 [13] | GI50 [14] | GI50 [15] | GI50 [16] | GI50 [17] | GI50 [18] | GI50 [19]
Oc1cc(-c2ccccc2)cn2c1nc1ccccc12 | 11 µM (inactive) | 1.73 µM (inactive) | 3.4 µM (inactive) | 4.68 µM (inactive) | 8.63 µM (inactive) | 2.19 µM (inactive) | 1.43 µM (inactive) | 3.44 µM (inactive) | 1.41 µM (inactive) | > 25.4 µM (inactive) | 6.37 µM (inactive) | 0.76 µM (active) | 6 µM (inactive) | 0.476 µM (active) | 3.21 µM (inactive) | 0.544 µM (active) | > 100 µM (inactive) | 2.51 µM (inactive) | 2.64 µM (inactive)
CCOC(=O)C(CS)NC(=O)CCCCCCCC(=O)NC(CS)C(=O)OCC (stereo not given) | > 100 µM (inactive) | > 100 µM (inactive) | 21.2 µM (inactive) | > 100 µM (inactive) | > 100 µM (inactive) | > 100 µM (inactive) | > 100 µM (inactive) | 32.4 µM (inactive) | 92 µM (inactive) | > 100 µM (inactive) | > 100 µM (inactive) | > 100 µM (inactive) | > 100 µM (inactive) | > 100 µM (inactive) | 36.3 µM (inactive) | > 100 µM (inactive) | > 100 µM (inactive) | > 100 µM (inactive) | > 100 µM (inactive)
O=C1CCCC2C3CC(CN12)C1CCCCN1C3.[O-][Cl+3]([O-])([O-])O (stereo not given) | > 100 µM (inactive) | > 100 µM (inactive) | > 100 µM (inactive) | > 100 µM (inactive) | > 100 µM (inactive) | > 100 µM (inactive) | > 100 µM (inactive) | > 100 µM (inactive) | > 100 µM (inactive) | > 100 µM (inactive) | > 100 µM (inactive) | > 100 µM (inactive) | > 100 µM (inactive) | > 100 µM (inactive) | > 100 µM (inactive) | > 100 µM (inactive) | > 100 µM (inactive) | > 100 µM (inactive) | > 100 µM (inactive)
CC(C)(C)c1cc(C2COC(=O)COCC(=O)OCCOCCOCCO2)cc(C(C)(C)C)c1O (stereo not given) | > 51.4 µM (inactive) | > 31.6 µM (inactive) | > 100 µM (inactive) | 14.5 µM (inactive) | 98.9 µM (inactive) | 17.9 µM (inactive) | > 100 µM (inactive) | > 100 µM (inactive) | > 100 µM (inactive) | > 100 µM (inactive) | > 77.6 µM (inactive) | 30.9 µM (inactive) | 23.6 µM (inactive) | > 100 µM (inactive) | 58.1 µM (inactive) | > 65.8 µM (inactive) | 20.4 µM (inactive) | 34.3 µM (inactive) | 18.6 µM (inactive)
C=C1C(=O)O[C@H]2C[C@@H]1C(=O)CC(C)CCCC(C)=CCC[C@@]2(C)O (stereo not given in full) | > 25 µM (inactive) | > 25 µM (inactive) | > 25 µM (inactive) | > 25 µM (inactive) | > 25 µM (inactive) | > 25 µM (inactive) | > 25 µM (inactive) | > 25 µM (inactive) | > 25 µM (inactive) | > 25 µM (inactive) | > 25 µM (inactive) | > 25 µM (inactive) | > 25 µM (inactive) | > 25 µM (inactive) | 16.8 µM (inactive) | > 25 µM (inactive) | > 25 µM (inactive) | > 25 µM (inactive) | > 25 µM (inactive)
C[N+](C)(C)CC1Cc2ccccc2C1=O (stereo not given) | > 10 µM (inactive) | > 10 µM (inactive) | 1.66 µM (inactive) | > 10 µM (inactive) | 6.38 µM (inactive) | > 10 µM (inactive) | > 10 µM (inactive) | 1.71 µM (inactive) | 2.11 µM (inactive) | > 10 µM (inactive) | > 10 µM (inactive) | > 10 µM (inactive) | > 10 µM (inactive) | > 10 µM (inactive) | 1.22 µM (inactive) | 1.87 µM (inactive) | > 8.36 µM (inactive) | > 10 µM (inactive) | > 10 µM (inactive)
C[C@@H](c1ccccc1)C(CC#N)[C@H]1CCC[C@]1(O)C#Cc1ccc2c(c1)OCO2 (stereo not given in full) | 19.8 µM (inactive) | 16.3 µM (inactive) | 14.8 µM (inactive) | 16.3 µM (inactive) | 15.2 µM (inactive) | 20.8 µM (inactive) | 14.3 µM (inactive) | 8.02 µM (inactive) | 15.8 µM (inactive) | 17.5 µM (inactive) | 17.7 µM (inactive) | 16.1 µM (inactive) | 18.1 µM (inactive) | 18.6 µM (inactive) | 19.7 µM (inactive) | 17.9 µM (inactive) | 16 µM (inactive) | 16.9 µM (inactive) | 14.4 µM (inactive)
OC1(c2ccc(Cl)cc2)c2ccccc2C2=Nc3ccccc3CN21 (stereo not given) | 27.6 µM (inactive) | 12.7 µM (inactive) | > 65.9 µM (inactive) | > 71.4 µM (inactive) | 14.8 µM (inactive) | 23 µM (inactive) | 39.2 µM (inactive) | 61.8 µM (inactive) | 30.5 µM (inactive) | 37.8 µM (inactive) | > 44.9 µM (inactive) | 37.6 µM (inactive) | 20.4 µM (inactive) | > 46.1 µM (inactive) | 5.93 µM (inactive) | 26.9 µM (inactive) | > 95.5 µM (inactive) | 23.7 µM (inactive) | 34.4 µM (inactive)
c1ccc(/C(=N/Nc2nc3ccccc3s2)C2CCCCC2)nc1 | 16.6 µM (inactive) | 16.9 µM (inactive) | 1.98 µM (inactive) | < 0.01 µM (active) | 0.569 µM (active) | 19.6 µM (inactive) | 4.43 µM (inactive) | 0.203 µM (active) | 4.13 µM (inactive) | 10 µM (inactive) | 6.4 µM (inactive) | 7.83 µM (inactive) | 15.8 µM (inactive) | 6.24 µM (inactive) | 3.88 µM (inactive) | 5.21 µM (inactive) | 2.47 µM (inactive) | 11.3 µM (inactive) | 3.04 µM (inactive)
Cc1cc(O)c2cc3c(O)c(O)ccc3cc2c1 | 3.12 µM (inactive) | 1.14 µM (inactive) | 1.27 µM (inactive) | 0.817 µM (active) | 2.54 µM (inactive) | 0.465 µM (active) | 1.51 µM (inactive) | 1.03 µM (active) | 1.4 µM (inactive) | 1.23 µM (inactive) | 1.24 µM (inactive) | 0.524 µM (active) | 0.619 µM (active) | 0.243 µM (active) | 0.618 µM (active) | 0.53 µM (active) | 3.78 µM (inactive) | 0.42 µM (active) | 0.7 µM (active)
COC(=O)n1c(=O)n(-c2ccccc2)c(=O)n1C(=O)Nc1ccccc1 | > 100 µM (inactive) | > 100 µM (inactive) | 96.2 µM (inactive) | > 100 µM (inactive) | > 100 µM (inactive) | > 100 µM (inactive) | > 100 µM (inactive) | > 100 µM (inactive) | > 100 µM (inactive) | > 100 µM (inactive) | > 100 µM (inactive) | > 100 µM (inactive) | > 100 µM (inactive) | > 100 µM (inactive) | > 100 µM (inactive) | > 100 µM (inactive) | > 100 µM (inactive) | > 100 µM (inactive) | > 100 µM (inactive)
CCC/N=C1\S/C(=C/c2ccc(OC)c(OC)c2)C(=O)N1c1ccccc1 | 21.5 µM (inactive) | 42.1 µM (inactive) | 58.7 µM (inactive) | > 100 µM (inactive) | > 100 µM (inactive) | 9.1 µM (inactive) | 80.2 µM (inactive) | 33.9 µM (inactive) | > 100 µM (inactive) | 41.8 µM (inactive) | 76.7 µM (inactive) | 61 µM (inactive) | 11.3 µM (inactive) | 37.6 µM (inactive) | 51.8 µM (inactive) | > 100 µM (inactive) | 22.8 µM (inactive) | 12.6 µM (inactive) | 32.5 µM (inactive)
CCOC(=O)C(NC(=O)c1cccc(Cl)c1)(N1CCN(c2cc3c(cc2F)c(=O)c(C(=O)O)cn3CC)CC1)C(F)(F)F (stereo not given) | 20.7 µM (inactive) | 18.7 µM (inactive) | 2.61 µM (inactive) | 12.6 µM (inactive) | 17.6 µM (inactive) | 15.6 µM (inactive) | 18.3 µM (inactive) | 3.85 µM (inactive) | 18.2 µM (inactive) | 18.2 µM (inactive) | 18 µM (inactive) | 22.3 µM (inactive) | 18.7 µM (inactive) | 14.2 µM (inactive) | 17.1 µM (inactive) | 12.9 µM (inactive) | 21.3 µM (inactive) | 6.7 µM (inactive) | 19.2 µM (inactive)
CCC(=O)NC(Nc1cccc(F)c1C)(C(F)(F)F)C(F)(F)F | > 100 µM (inactive) | > 100 µM (inactive) | > 100 µM (inactive) | > 100 µM (inactive) | > 100 µM (inactive) | 54.5 µM (inactive) | > 100 µM (inactive) | > 100 µM (inactive) | > 100 µM (inactive) | > 100 µM (inactive) | > 100 µM (inactive) | > 100 µM (inactive) | > 100 µM (inactive) | > 100 µM (inactive) | 75.3 µM (inactive) | > 100 µM (inactive) | > 100 µM (inactive) | > 100 µM (inactive) | 94.6 µM (inactive)
O=C(O)c1ccccc1/C=C1\Cc2ccccc2C1=O | > 100 µM (inactive) | > 100 µM (inactive) | > 100 µM (inactive) | > 100 µM (inactive) | 38.2 µM (inactive) | > 100 µM (inactive) | > 100 µM (inactive) | > 100 µM (inactive) | > 100 µM (inactive) | > 100 µM (inactive) | > 100 µM (inactive) | > 100 µM (inactive) | > 100 µM (inactive) | 47.2 µM (inactive) | > 100 µM (inactive) | > 100 µM (inactive) | > 100 µM (inactive) | > 100 µM (inactive) | > 100 µM (inactive)
